Measurements as given in patent US8637518B2, “Pyridazinone derivatives” (MERCK PATENT GmbH, priority 2008, dated 2014).
pIC50: −log10 of the molar value.

Experiments:
Met kinase = molecular target: T1, Met kinase (Homo sapiens, UniProt P08581); test: Met kinase inhibition, enzyme assay (flashplate method); format: biochemical
T1 construct: 6His (N); purchased Upstate 14-526; host or cells: Sf21 insect cells (S. frugiperda), baculovirus
Source text: According to the manufacturer's data (Met, active, upstate, catalogue No. 14-526), Met kinase is expressed for the purposes of protein production in insect cells (Sf21; S. frugiperda) and subsequent affinity-chromatographic purification as “N-terminal 6His-tagged” recombinant human protein in a baculovirus expression vector.
The test plates used are 96-well Flashplate® microtitre plates from Perkin Elmer (Cat. No. SMP200). The components of the kinase reaction described below are pipetted into the assay plate. The Met kinase and the substrate poly Ala-Glu-Lys-Tyr, (pAGLT, 6:2:5:1), are incubated for 3 hrs at room temperature with radioactively labelled ^33P-ATP in the presence and absence of test substances in a total volume of 100 μl. The reaction is terminated using 150 μl of a 60 mM EDTA solution. After incubation for a further 30 min at room temperature, the supernatants are filtered off with suction, and the wells are washed three times with 200 μl of 0.9% NaCl solution each time. The measurement of the bound radioactivity is carried out by means of a scintillation measuring instrument (Topcount NXT, Perkin-Elmer).
The full value used is the inhibitor-free kinase reaction. This should be approximately in the range 6000-9000 cpm. The pharmacological zero value used is staurosporin in a final concentration of […]. The inhibitory values ([…]) are determined using the RS1_MTS program.
Kinase reaction conditions per well:
• 30 μl of assay buffer • 10 μl of substance to be tested in assay buffer with 10% of DMSO • 10 μl of ATP (final concentration 1 μM cold, 0.35 μCi of ^33P-ATP) • 50 μl of Met kinase/substrate mixture in assay buffer; • (10 ng of enzyme/well, 50 ng of pAGLT/well)
Solutions used: • Assay buffer:
50 mM HEPES • 3 mM magnesium chloride • 3 μM sodium orthovanadate • 3 mM manganese(II) chloride • 1 mM dithiothreitol (DTT)
pH=7.5 (to be set using sodium hydroxide) • Stop solution:
60 mM Titriplex III (EDTA) • ^33P-ATP: Perkin-Elmer; • Met kinase: Upstate, Cat. No. 14-526, Stock 1 μg/10 μl; spec. activity 954 U/mg; • Poly-Ala-Glu-Lys-Tyr, 6:2:5:1: Sigma Cat. No. P1152 In-vivo tests

T1 sequence (P08581 974-1390 limits assumed): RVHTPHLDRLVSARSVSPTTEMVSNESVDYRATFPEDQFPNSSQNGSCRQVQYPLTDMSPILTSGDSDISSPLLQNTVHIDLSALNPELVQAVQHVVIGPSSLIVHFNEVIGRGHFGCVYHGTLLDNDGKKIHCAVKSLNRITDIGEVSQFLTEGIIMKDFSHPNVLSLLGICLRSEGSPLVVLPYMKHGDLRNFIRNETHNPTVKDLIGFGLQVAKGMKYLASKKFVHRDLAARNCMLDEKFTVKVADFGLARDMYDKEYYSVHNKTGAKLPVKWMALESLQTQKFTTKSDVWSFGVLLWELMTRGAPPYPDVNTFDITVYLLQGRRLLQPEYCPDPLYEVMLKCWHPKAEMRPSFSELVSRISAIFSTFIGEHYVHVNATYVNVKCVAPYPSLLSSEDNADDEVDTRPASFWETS

Compound | melting point | pIC50 (Met kinase)
N#Cc1cccc(-c2ccc(=O)n(Cc3cccc(-c4ncc(OCC5CCC(CN)CC5)cn4)c3)n2)c1 (centres unmarked) [Compound A13b, 3-(1-{3-[5-(4-Aminomethylcyclohexylmethoxy)pyrimidin-2-yl]benzyl}-6-oxo-1,6-dihydropyridazin-3-yl)benzonitrile] | – | 6.00 to 8.00
N#Cc1cccc(-c2ccc(=O)n(Cc3cccc(-c4ncc(OCC5CC5CN)cn4)c3)n2)c1 (centres unmarked) [Compound A13c, 3-(1-{3-[5-(2-Aminomethylcyclopropylmethoxy)pyrimidin-2-yl]benzyl}-6-oxo-1,6-dihydropyridazin-3-yl)benzonitrile] | – | 6.00 to 8.00
CC(=O)N[C@H](C(=O)NCCOc1cnc(-c2cccc(Cn3nc(-c4cnn(C)c4)ccc3=O)c2)nc1)C(C)C [Compound A7, (S)-2-acetylamino-3-methyl-N-[2-(2-{3-[3-(1-methyl-1H-pyrazol-4-yl)-6-oxo-6H-pyridazin-1-ylmethyl]phenyl}pyrimidin-5-yloxy)ethyl]-butyramide] | – | 6.00 to 8.00
CC(=O)N[C@H](C(=O)NCCOc1cnc(-c2cccc(Cn3nc(-c4cccc(C#N)c4)ccc3=O)c2)nc1)C(C)C [Compound A8, (S)-2-acetylamino-N-[2-(2-{3-[3-(3-cyanophenyl)-6-oxo-6H-pyridazin-1-yl-methyl]phenyl}pyrimidin-5-yloxy)ethyl]-3-methylbutyramide] | – | 6.00 to 8.00
N#Cc1cccc(-c2ccc(=O)n(Cc3cccc(-c4ncc(OCCNC(=O)[C@@H]5CCCN5)cn4)c3)n2)c1 [Compound A5, N-[2-(2-{3-[3-(3-Cyanophenyl)-6-oxo-6H-pyridazin-1-ylmethyl]phenyl}-pyrimidin-5-yloxy)ethyl]-(S)-pyrrolidine-2-carboxamide] | – | 6.00 to 8.00
CN(C)CC1CCC(COc2cnc(-c3cccc(Cn4nc(-c5cnn(C)c5)ccc4=O)c3)nc2)CC1 (centres unmarked) [Compound A13, 2-{3-[5-(4-dimethylaminomethylcyclohexylmethoxy)pyrimidin-2-yl]benzyl}-6-(1-methyl-1H-pyrazol-4-yl)-2H-pyridazin-3-one] | – | 6.00 to 8.00
N#Cc1cccc(-c2ccc(=O)n(Cc3cccc(-c4ncc(O[C@@H]5CN[C@H](C(=O)O)C5)cn4)c3)n2)c1 [Compound A10, (2S,4S)-4-(2-{3-[3-(3-cyanophenyl)-6-oxo-6H-pyridazin-1-yl-methyl]phenyl}pyrimidin-5-yloxy)pyrrolidine-2-carboxylic acid] | – | 6.00 to 8.00
Cn1cc(-c2ccc(=O)n(Cc3cccc(-c4ncc(OCCNC(=O)[C@@H]5CCCN5)cn4)c3)n2)cn1 [Compound A3] | – | 6.00 to 8.00
Cn1cc(-c2ccc(=O)n(Cc3cccc(-c4ncc(OCCC[C@H](N)C(=O)O)cn4)c3)n2)cn1 [Compound A11, (S)-2-Amino-5-(2-{3-[3-(1-methyl-1H-pyrazol-4-yl)-6-oxo-6H-pyridazin-1-yl-methyl]phenyl}pyrimidin-5-yloxy)pentanoic acid] | – | 6.00 to 8.00
Cn1cc(-c2ccc(=O)n(Cc3cccc(-c4ncc(OCC5CCC(CN)CC5)cn4)c3)n2)cn1 (centres unmarked) [Compound A13a, 2-{3-[5-(4-aminomethylcyclohexylmethoxy)pyrimidin-2-yl]benzyl}-6-(1-methyl-1H-pyrazol-4-yl)-2H-pyridazin-3-one] | – | 6.00 to 8.00
Cn1cc(-c2ccc(=O)n(Cc3cccc(-c4ncc(OCCNC(=O)[C@@H]5C[C@@H](O)CN5)cn4)c3)n2)cn1 [Compound A2, N-[2-(2-{3-[3-(1-Methyl-1H-pyrazol-4-yl)-6-oxo-6H-pyridazin-1-ylmethyl]-phenyl}pyrimidin-5-yloxy)ethyl]-(2S,4R)-4-hydroxypyrrolidine-2-carboxamide] | – | 6.00 to 8.00
CN(C)C[C@H]1C[C@@H]1COc1cnc(-c2cccc(Cn3nc(-c4cccc(C#N)c4)ccc3=O)c2)nc1 [Compound A17, 3-(1-{3-[5-((1S,2S)-2-Dimethylaminomethylcyclopropylmethoxy)pyrimidin-2-yl]benzyl}-6-oxo-1,6-dihydropyridazin-3-yl)benzonitrile] | – | 6.00 to 8.00
N#Cc1cccc(-c2ccc(=O)n(Cc3cccc(-c4ncc(OCCNC(=O)[C@@H]5C[C@@H](O)CN5)cn4)c3)n2)c1 [Compound A4, N-[2-(2-{3-[3-(3-Cyanophenyl)-6-oxo-6H-pyridazin-1-ylmethyl]phenyl}-pyrimidin-5-yloxy)ethyl]-(2S,4R)-4-hydroxypyrrolidine-2-carboxamide] | – | 6.00 to 8.00
CO[C@@H](C)[C@H](N)C(=O)NCCOc1cnc(-c2cccc(Cn3nc(-c4cccc(C#N)c4)ccc3=O)c2)nc1 [Compound A6, (2S,3S)-2-Amino-N-[2-(2-{3-[3-(3-cyanophenyl)-6-oxo-6H-pyridazin-1-yl-methyl]phenyl}pyrimidin-5-yloxy)ethyl]-3-methoxybutyramide] | – | 6.00 to 8.00
N#Cc1cccc(-c2ccc(=O)n(Cc3cccc(-c4ncc(OCC5(CN)CC5)cn4)c3)n2)c1 [Compound A15, 3-(1-{3-[5-(1-Aminomethylcyclopropylmethoxy)pyrimidin-2-yl]benzyl}-6-oxo-1,6-dihydropyridazin-3-yl)benzonitrile] | – | 6.00 to 8.00
Cn1cc(-c2ccc(=O)n(Cc3cccc(-c4ncc(OCC5(CN)CC5)cn4)c3)n2)cn1 [Compound A14, 2-{3-[5-(1-Aminomethylcyclopropylmethoxy)pyrimidin-2-yl]benzyl}-6-(1-methyl-1H-pyrazol-4-yl)-2H-pyridazin-3-one] | – | 6.00 to 8.00
CO[C@@H](C)[C@H](N)C(=O)NCCOc1cnc(-c2cccc(Cn3nc(-c4cnn(C)c4)ccc3=O)c2)nc1 [Compound A1, (2S,3S)-2-amino-3-methoxy-N-[2-(2-{3-[3-(1-methyl-1H-pyrazol-4-yl)-6-oxo-6H-pyridazin-1-ylmethyl]phenyl}pyrimidin-5-yloxy)ethyl]-butyramide] | – | 6.00 to 8.00

Now from value to molecule:

melting point | pIC50 (Met kinase) | Compound
242 to 243 °C | – | CNC(=O)COc1cnc(-c2cccc(Cn3nc(-c4cnn(C)c4)ccc3=O)c2)nc1 [Compound A27, N-Methyl-2-(2-{3-[3-(1-methyl-1H-pyrazol-4-yl)-6-oxo-6H-pyridazin-1-ylmethyl]phenyl}pyrimidin-5-yloxy)acetamide]
197 to 198 °C | – | CC(C)(C)OC(=O)N1CCC(COc2cnc(-c3cccc(Cn4nc(-c5cccc(C(N)=O)c5)ccc4=O)c3)nc2)CC1 [Compound C18, tert-butyl 4-(2-{3-[3-(3-carbamoylphenyl)-6-oxo-6H-pyridazin-1-ylmethyl]-phenyl}pyrimidin-5-yloxymethyl)piperidine-1-carboxylate]
– | 6.00 to 8.00 | CC(C)(C)OC(=O)NCCOc1cnc(-c2cccc(Cn3nc(-c4cccc(C#N)c4)ccc3=O)c2)nc1 [Compound B2, tert-butyl [2-(2-{3-[3-(3-cyanophenyl)-6-oxo-6H-pyridazin-1-ylmethyl]phenyl}-pyrimidin-5-yloxy)ethyl]carbamate]
200 to 201 °C | – | CC(C)Oc1cnc(-c2cccc(Cn3nc(-c4cccc(C#N)c4)ccc3=O)c2)nc1 [Compound D2, 3-{1-[3-(5-Isopropoxypyrimidin-2-yl)benzyl]-6-oxo-1,6-dihydropyridazin-3-yl}benzonitrile]
229 to 230 °C | – | COc1cnc(-c2cccc(Cn3nc(-c4cccc(C#N)c4)ccc3=O)c2)nc1 [Compound D3, 3-{1-[3-(5-Methoxypyrimidin-2-yl)benzyl]-6-oxo-1,6-dihydropyridazin-3-yl}-benzonitrile]
– | 6.00 to 8.00 | N#Cc1cccc(-c2ccc(=O)n(Cc3cccc(-c4ncc(OC5CCC(O)C5)cn4)c3)n2)c1 (centres unmarked) [Compound A23, 3-(1-{3-[5-(3-Hydroxycyclopentyloxy)pyrimidin-2-yl]benzyl}-6-oxo-1,6-dihydro-pyridazin-3-yl)benzonitrile]
– | 6.00 to 8.00 | Cn1cc(-c2ccc(=O)n(Cc3cccc(-c4ncc(O[C@H]5CCC[C@H]5N)cn4)c3)n2)cn1 [Compound A20, 2-{3-[5-((1S,2R)-2-Aminocyclopentyloxy)pyrimidin-2-yl]benzyl}-6-(1-methyl-1H-pyrazol-4-yl)-2H-pyridazin-3-one]
– | 6.00 to 8.00 | N#Cc1cccc(-c2ccc(=O)n(Cc3cccc(-c4ncc(O[C@H]5CCC[C@H]5N)cn4)c3)n2)c1 [Compound A19, 3-(1-{3-[5-((1S,2R)-2-Aminocyclopentyloxy)pyrimidin-2-yl]benzyl}-6-oxo-1,6-dihydropyridazin-3-yl)benzonitrile]
– | 6.00 to 8.00 | N#Cc1cccc(-c2ccc(=O)n(Cc3cccc(-c4ncc(OCC5CCN(CC6CC6)CC5)cn4)c3)n2)c1 [Compound A24, 3-(1-{3-[5-(1-cyclopropylmethylpiperidin-4-ylmethoxy)-pyrimidin-2-yl]benzyl}-6-oxo-1,6-dihydropyridazin-3-yl)benzonitrile]
